Assays:
D(1A) dopamine receptor = D(1A) dopamine receptor (Homo sapiens, UniProt P21728); test: DRUGMATRIX: Dopamine D1 radioligand binding (ligand: [3H] SCH-23390); format: cell membranes, CHO, Membrane; details: Not Active = under 50% inhibition at 10 µM
[1] = molecular target: Vascular endothelial growth factor receptor 1 (Homo sapiens, UniProt P17948); format: cell-based; details: huvec; note: in other assays of this panel Not Active means under 50% inhibition at 10 µM
[2] = DRUGMATRIX: Glutamate, AMPA radioligand binding (ligand: [3H] AMPA); format: cell membranes, Rattus norvegicus, Wistar, Cerebral cortex, Membrane; details: Not Active = under 50% inhibition at 10 µM
[3] = molecular target: Receptor tyrosine-protein kinase erbB-2 (Homo sapiens, UniProt P04626); test: biochemical; format: cell-based, Insect cells; details: insect cells;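 note: inhibition of HER2 kinase enzyme activity, measured with Poly(Glu:Tyr) as the phosphorylation substrate; in other assays of this panel Not Active means under 50% inhibition at 10 µM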
[4] = molecular target: T1, Vasoactive intestinal polypeptide receptor 1 (Homo sapiens, UniProt P32241); format: cell membranes, Membrane; details: ht-29; note: in other assays of this panel Not Active means under 50% inhibition at 10 µM
T1 sequence (P32241 whole entry): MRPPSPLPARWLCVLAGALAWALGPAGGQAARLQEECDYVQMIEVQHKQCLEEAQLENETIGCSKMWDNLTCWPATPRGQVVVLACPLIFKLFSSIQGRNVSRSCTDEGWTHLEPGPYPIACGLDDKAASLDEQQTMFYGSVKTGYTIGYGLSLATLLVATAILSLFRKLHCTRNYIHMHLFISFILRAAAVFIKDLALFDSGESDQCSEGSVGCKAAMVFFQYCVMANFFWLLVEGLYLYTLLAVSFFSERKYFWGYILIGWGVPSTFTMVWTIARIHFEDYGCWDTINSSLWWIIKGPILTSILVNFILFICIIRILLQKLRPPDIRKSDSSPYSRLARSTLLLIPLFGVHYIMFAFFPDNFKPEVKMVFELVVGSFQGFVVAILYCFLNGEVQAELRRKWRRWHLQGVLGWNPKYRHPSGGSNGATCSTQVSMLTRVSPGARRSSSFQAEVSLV

Cytochrome P450 2A6 = molecular target: T2, Cytochrome P450 2A6 (Homo sapiens, UniProt P11509); details: bti-tn-5b1-4; note: in other assays of this panel Not Active means under 50% inhibition at 10 µM
T2 sequence (P11509 whole entry): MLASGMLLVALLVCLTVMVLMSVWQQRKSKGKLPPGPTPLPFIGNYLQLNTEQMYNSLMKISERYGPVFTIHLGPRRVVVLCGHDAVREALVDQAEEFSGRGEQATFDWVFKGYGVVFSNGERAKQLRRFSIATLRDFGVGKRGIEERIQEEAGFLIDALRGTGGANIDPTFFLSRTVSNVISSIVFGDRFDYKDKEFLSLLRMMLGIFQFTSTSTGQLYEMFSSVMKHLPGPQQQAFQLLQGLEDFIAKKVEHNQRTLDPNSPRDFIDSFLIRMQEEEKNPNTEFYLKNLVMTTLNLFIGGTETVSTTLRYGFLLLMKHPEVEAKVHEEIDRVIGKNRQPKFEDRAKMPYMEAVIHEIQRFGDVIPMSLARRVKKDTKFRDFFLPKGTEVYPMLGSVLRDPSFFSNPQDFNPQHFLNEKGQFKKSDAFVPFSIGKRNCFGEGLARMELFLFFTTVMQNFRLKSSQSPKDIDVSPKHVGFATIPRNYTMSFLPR

Neutrophil elastase = molecular target: T3, Neutrophil elastase (Homo sapiens, UniProt P08246); format: tissue-based
T3 sequence (P08246 whole entry): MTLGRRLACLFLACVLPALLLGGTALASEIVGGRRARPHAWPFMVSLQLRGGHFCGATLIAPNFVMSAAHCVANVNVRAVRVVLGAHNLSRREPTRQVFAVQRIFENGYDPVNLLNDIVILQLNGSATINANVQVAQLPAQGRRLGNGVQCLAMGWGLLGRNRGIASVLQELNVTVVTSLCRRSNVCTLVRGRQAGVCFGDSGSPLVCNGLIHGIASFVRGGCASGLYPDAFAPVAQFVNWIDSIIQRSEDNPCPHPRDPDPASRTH

Estrogen receptor = molecular target: T4, Estrogen receptor (Homo sapiens, UniProt P03372); details: sf9; note: in other assays of this panel Not Active means under 50% inhibition at 10 µM
T4 sequence (P03372 whole entry): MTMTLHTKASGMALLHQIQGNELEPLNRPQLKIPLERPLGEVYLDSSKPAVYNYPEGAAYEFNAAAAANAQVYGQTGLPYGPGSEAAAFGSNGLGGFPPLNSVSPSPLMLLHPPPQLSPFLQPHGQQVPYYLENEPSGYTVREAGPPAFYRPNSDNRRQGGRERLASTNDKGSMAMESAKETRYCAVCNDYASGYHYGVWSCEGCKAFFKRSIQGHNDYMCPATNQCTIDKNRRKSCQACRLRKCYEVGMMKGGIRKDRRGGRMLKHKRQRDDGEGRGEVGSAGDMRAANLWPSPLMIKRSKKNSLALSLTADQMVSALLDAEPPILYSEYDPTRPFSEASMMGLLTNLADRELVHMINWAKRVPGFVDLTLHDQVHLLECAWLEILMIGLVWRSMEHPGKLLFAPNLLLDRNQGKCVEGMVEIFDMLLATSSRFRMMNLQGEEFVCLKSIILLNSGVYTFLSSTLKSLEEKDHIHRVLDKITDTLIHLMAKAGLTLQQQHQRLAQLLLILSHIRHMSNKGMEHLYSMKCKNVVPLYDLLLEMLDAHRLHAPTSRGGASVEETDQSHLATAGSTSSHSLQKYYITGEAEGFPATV

[5] = molecular target: Kappa-type opioid receptor (Homo sapiens, UniProt P41145); test: DRUGMATRIX: Opiate kappa (OP2, KOP) radioligand binding (ligand: [3H] Diprenorphine); format: cell membranes, HEK293, Membrane; details: hek293; Not Active = under 50% inhibition at 10 µM
Glycine receptor = Glycine receptor (Rattus norvegicus, UniProt P22771+P24524+P07727+P20781); format: cell membranes, Wistar, Spinal cord, Membrane; note: in other assays of this panel Not Active means under 50% inhibition at 10 µM
[6] = molecular target: Mitogen-activated protein kinase 14 (Homo sapiens, UniProt Q16539); design: species or system Escherichia coli
[7] = DRUGMATRIX: beta-Lactamase enzyme inhibition (substrate: Nitrocefin); design: species or system Bacillus cereus; details: Not Active = under 50% inhibition at 10 µM

Receptor tyrosine-protein kinase erbB-2, sequence (P04626 whole entry): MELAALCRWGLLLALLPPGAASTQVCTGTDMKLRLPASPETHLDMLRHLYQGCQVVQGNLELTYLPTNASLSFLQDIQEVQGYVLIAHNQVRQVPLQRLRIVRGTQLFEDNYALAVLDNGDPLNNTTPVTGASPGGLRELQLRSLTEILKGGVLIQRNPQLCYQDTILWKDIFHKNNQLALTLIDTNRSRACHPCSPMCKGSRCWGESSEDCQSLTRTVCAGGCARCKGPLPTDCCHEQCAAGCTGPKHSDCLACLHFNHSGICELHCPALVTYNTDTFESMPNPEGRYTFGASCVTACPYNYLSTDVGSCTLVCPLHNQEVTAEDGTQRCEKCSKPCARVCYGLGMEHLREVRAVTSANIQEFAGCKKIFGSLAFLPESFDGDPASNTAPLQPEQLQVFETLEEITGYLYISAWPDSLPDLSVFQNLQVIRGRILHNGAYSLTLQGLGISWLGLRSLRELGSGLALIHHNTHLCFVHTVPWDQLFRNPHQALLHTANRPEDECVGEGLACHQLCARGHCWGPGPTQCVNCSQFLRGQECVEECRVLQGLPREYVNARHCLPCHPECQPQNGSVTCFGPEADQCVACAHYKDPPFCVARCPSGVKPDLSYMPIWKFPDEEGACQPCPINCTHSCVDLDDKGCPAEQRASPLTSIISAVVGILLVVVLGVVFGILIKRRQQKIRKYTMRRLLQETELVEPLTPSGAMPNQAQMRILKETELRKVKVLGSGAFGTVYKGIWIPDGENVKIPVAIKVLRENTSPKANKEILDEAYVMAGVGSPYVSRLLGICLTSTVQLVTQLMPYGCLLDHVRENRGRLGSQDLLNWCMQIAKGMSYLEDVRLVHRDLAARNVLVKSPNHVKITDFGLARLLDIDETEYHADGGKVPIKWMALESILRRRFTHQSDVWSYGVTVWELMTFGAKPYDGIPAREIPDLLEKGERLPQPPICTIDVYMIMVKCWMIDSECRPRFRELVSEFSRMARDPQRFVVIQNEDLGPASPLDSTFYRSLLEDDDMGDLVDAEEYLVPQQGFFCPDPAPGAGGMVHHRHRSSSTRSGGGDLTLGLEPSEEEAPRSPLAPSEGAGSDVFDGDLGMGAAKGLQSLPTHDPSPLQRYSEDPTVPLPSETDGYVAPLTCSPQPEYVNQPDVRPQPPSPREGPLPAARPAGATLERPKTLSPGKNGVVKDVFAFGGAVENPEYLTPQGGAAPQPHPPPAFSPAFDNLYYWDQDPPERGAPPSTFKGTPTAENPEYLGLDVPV
Mitogen-activated protein kinase 14, sequence (Q16539 whole entry): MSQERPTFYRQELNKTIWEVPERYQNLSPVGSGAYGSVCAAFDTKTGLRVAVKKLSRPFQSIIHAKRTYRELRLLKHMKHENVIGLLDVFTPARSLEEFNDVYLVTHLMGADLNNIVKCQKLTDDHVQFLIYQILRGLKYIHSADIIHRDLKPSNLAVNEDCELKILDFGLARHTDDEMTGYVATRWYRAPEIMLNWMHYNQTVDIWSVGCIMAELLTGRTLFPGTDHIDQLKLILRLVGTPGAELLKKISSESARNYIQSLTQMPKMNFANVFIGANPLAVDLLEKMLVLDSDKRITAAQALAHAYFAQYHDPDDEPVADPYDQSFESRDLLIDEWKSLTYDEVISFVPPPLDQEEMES
D(1A) dopamine receptor, sequence (P21728 whole entry): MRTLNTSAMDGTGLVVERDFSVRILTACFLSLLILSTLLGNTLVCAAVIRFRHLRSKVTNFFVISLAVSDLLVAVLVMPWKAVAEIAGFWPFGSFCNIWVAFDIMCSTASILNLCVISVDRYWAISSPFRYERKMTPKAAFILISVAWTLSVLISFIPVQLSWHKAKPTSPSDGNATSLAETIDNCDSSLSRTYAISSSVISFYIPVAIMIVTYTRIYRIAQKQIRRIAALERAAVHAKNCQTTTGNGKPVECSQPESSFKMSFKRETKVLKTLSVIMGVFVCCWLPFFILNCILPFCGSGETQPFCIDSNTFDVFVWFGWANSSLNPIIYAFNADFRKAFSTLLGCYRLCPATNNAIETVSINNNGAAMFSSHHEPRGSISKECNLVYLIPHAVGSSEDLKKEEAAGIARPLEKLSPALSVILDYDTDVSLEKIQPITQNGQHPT
Kappa-type opioid receptor, sequence (P41145 whole entry): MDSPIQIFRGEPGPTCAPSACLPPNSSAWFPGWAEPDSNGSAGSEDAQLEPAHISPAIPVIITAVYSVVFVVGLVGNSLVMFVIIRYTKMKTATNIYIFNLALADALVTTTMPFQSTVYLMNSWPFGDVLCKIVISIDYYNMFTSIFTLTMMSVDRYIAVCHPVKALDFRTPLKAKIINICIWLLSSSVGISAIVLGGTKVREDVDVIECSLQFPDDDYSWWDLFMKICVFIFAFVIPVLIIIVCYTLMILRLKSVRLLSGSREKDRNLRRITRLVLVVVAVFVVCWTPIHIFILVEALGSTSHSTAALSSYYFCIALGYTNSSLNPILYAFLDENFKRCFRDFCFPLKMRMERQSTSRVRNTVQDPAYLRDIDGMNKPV
Vascular endothelial growth factor receptor 1, sequence (P17948 whole entry): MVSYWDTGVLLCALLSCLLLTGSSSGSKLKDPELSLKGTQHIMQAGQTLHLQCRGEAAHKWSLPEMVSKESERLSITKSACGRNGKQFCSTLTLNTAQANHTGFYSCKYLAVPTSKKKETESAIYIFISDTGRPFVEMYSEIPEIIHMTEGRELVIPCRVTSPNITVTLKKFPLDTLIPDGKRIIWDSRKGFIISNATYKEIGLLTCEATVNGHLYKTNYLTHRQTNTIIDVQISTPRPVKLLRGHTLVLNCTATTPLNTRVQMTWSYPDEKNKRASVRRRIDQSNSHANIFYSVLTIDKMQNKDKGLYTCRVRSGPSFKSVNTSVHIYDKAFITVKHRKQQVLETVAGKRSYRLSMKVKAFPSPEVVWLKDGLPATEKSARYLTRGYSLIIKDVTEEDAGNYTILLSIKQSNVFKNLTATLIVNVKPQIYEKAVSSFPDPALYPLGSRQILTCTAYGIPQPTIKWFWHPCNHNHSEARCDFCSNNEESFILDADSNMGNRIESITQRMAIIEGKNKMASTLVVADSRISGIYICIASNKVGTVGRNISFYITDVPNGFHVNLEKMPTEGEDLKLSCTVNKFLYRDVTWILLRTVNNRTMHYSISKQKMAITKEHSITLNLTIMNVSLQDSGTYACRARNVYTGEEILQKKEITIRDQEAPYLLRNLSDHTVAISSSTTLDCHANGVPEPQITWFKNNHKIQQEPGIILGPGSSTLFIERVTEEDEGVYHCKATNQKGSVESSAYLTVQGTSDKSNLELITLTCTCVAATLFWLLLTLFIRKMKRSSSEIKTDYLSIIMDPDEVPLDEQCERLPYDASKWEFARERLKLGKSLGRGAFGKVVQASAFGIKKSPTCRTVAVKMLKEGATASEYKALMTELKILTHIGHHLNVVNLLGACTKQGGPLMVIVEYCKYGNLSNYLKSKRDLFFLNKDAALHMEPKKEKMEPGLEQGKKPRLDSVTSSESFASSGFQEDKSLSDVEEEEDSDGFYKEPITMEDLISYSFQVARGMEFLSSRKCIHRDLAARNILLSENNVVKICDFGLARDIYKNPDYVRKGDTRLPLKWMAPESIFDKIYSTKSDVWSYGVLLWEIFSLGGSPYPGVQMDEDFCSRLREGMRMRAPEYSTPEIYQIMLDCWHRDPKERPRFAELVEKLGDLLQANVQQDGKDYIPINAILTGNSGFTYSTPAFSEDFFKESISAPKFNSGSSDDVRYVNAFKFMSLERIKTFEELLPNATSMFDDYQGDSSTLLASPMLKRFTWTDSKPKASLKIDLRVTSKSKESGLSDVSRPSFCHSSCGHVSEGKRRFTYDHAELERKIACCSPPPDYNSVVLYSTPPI

Row | SMILES | IC50 (D(1A) dopamine receptor; cho) | IC50 [1] | IC50 [2] | Ki [2] | IC50 [3] | IC50 [4] | IC50 (Cytochrome P450 2A6) | Ki (Cytochrome P450 2A6) | IC50 (Neutrophil elastase) | IC50 (Estrogen receptor) | IC50 [5] | IC50 (Glycine receptor) | IC50 [6] | IC50 [7] | Ki [7] | IC50 (D(1A) dopamine receptor; read-out: IC50) [nM] | Ki (D(1A) dopamine receptor; read-out: Ki) [nM]
1 | Nc1nc2c(ncn2COC(CO)CO)c(=O)[nH]1 [GANCICLOVIR] | Not Active | Not Active | Not Active | Not Active | Not Active | Not Active | Not Active | Not Active | Not Active | Not Active | Not Active | Not Active | Not Active | Not Active | Not Active | – | –
2 | COC1=CC(=O)C[C@@H](C)[C@]12Oc1c(Cl)c(OC)cc(OC)c1C2=O [GRISEOFULVIN] | Not Active | Not Active | Not Active | Not Active | Not Active | Not Active | Not Active | Not Active | Not Active | Not Active | Not Active | Not Active | Not Active | Not Active | Not Active | – | –
3 | NS(=O)(=O)c1cc2c(cc1Cl)NCNS2(=O)=O [HYDROCHLOROTHIAZIDE] | Not Active | Not Active | Not Active | Not Active | Not Active | Not Active | Not Active | Not Active | Not Active | Not Active | Not Active | Not Active | Not Active | Not Active | Not Active | – | –
4 | CN1CCC[C@H]1c1cccnc1 [NICOTINE] | Not Active | Not Active | Not Active | Not Active | Not Active | Not Active | Not Active | Not Active | Not Active | Not Active | Not Active | Not Active | Not Active | Not Active | Not Active | – | –
5 | O=C1CN=C(c2ccccc2)c2cc([N+](=O)[O-])ccc2N1 [NITRAZEPAM] | Not Active | Not Active | Not Active | Not Active | Not Active | Not Active | Not Active | Not Active | Not Active | Not Active | Not Active | Not Active | Not Active | Not Active | Not Active | – | –
6 | CNCCC=C1c2ccccc2CCc2ccccc21 [NORTRIPTYLINE] | – | Not Active | Not Active | Not Active | Not Active | Not Active | Not Active | Not Active | Not Active | Not Active | Not Active | Not Active | Not Active | Not Active | Not Active | 539 | 269
7 | CN(C)[C@@H]1C(O)=C(C(N)=O)C(=O)[C@@]2(O)C(O)=C3C(=O)c4c(O)cccc4[C@@](C)(O)[C@H]3[C@H](O)[C@@H]12 [OXYTETRACYCLINE] | Not Active | Not Active | Not Active | Not Active | Not Active | Not Active | Not Active | Not Active | Not Active | Not Active | Not Active | Not Active | Not Active | Not Active | Not Active | – | –

Source: ChEMBL document CHEMBL1909046, “DrugMatrix in vitro pharmacology data”
